Values belong to the molecule of their own block, whether it stands above or below them.
How the values were obtained:
Rattus norvegicus [1] = experiment: Cmax in Wistar rat plasma assessed as metformin level at 67 mg/kg, iv; type: ADME, organism-based; parameters: dose 67 mg/kg, route intravenous; conditions: in vivo
[2] = Metabolic stability in human serum assessed as compound degradation to metformin after 24 hrs by HPLC; type: ADME, cell-free; conditions: read-out: Activity
[3] = Metabolic stability in rat serum assessed as compound degradation to metformin after 24 hrs by HPLC; type: ADME, cell-free; conditions: read-out: Activity
Rattus norvegicus [4] = experiment: AUC (0 to infinity) in Wistar rat plasma assessed as metformin level at 100 mg/kg, po; type: ADME, organism-based; parameters: time infinity, dose 100 mg/kg, route oral; conditions: in vivo
[5] = Metabolic stability in 20% rat liver homogenate assessed as compound degradation to metformin after 24 hrs by HPLC; type: ADME, tissue-based; conditions: 20% liver homogenate, read-out: Activity
[6] = Chemical stability in 50 mM acetate buffer at pH 4.0 at 37 degC assessed as compound degradation to metformin after 4 weeks by HPLC; type: physicochemical; conditions: read-out: Activity
Rattus norvegicus [7] = experiment: Tmax in Wistar rat plasma assessed as metformin level at 100 mg/kg, po; type: ADME, organism-based; parameters: dose 100 mg/kg, route oral; conditions: in vivo
Rattus norvegicus [8] = experiment: Cmax in Wistar rat plasma assessed as metformin level at 100 mg/kg, po; type: ADME, organism-based; parameters: dose 100 mg/kg, route oral; conditions: in vivo
[9] = Chemical stability in 50 mM phosphate buffer at pH 7.4 at 37 degC assessed as compound degradation to metformin after 4 weeks by HPLC; type: physicochemical; conditions: read-out: Activity
Rattus norvegicus [10] = experiment: Oral bioavailability in Wistar rat assessed as metformin level at 100 mg/kg; type: ADME, organism-based; conditions: in vivo
[11] = Chemical stability in 50 mM HCl buffer at pH 1.0 at 37 degC assessed as half life by HPLC; type: physicochemical
[12] = Chemical stability in 50 mM borate buffer at pH 9.0 at 37 degC assessed as compound degradation to metformin after 4 weeks by HPLC; type: physicochemical; conditions: read-out: Activity
[13] = Octanol-water distribution coefficient, log D at pH 4 by HPLC; type: physicochemical
[14] = Octanol-water distribution coefficient, log D at pH 7.4 by HPLC; type: physicochemical
[15] = Chemical stability in 15 mM hydrogen peroxide solution at pH 7.4 at 37 degC assessed as half life by HPLC; type: physicochemical
Rattus norvegicus [16] = experiment: AUC (0 to infinity) in Wistar rat plasma assessed as metformin level at 67 mg/kg, iv; type: ADME, organism-based; parameters: time infinity, dose 67 mg/kg, route intravenous; conditions: in vivo
Rattus norvegicus [17] = experiment: Tmax in Wistar rat plasma assessed as metformin level at 67 mg/kg, iv; type: ADME, organism-based; parameters: dose 67 mg/kg, route intravenous; conditions: in vivo
[18] = Chemical stability in 50 mM acetate buffer at pH 4.0 at 37 degC assessed as half life by HPLC; type: physicochemical
[19] = Chemical stability in 50 mM phosphate buffer at pH 7.4 at 37 degC assessed as half life by HPLC; type: physicochemical
[20] = Metabolic stability in 20% rat liver homogenate assessed as half life by HPLC; type: ADME, tissue-based; conditions: 20% liver homogenate
[21] = Chemical stability in 50 mM borate buffer at pH 9.0 at 37 degC assessed as half life by HPLC; type: physicochemical
Serum = experiment: Metabolic stability in human serum assessed as half life by HPLC; type: ADME, cell-free
[22] = Metabolic stability in rat serum assessed as half life by HPLC; type: ADME, cell-free
Rattus norvegicus [23] = experiment: AUC (0 to infinity) in Wistar rat plasma at 35 mg/kg, iv; type: ADME, organism-based; parameters: time infinity, dose 35 mg/kg, route intravenous; conditions: in vivo
[24] = Tmax in Wistar rat plasma at 35 mg/kg, iv; type: ADME, organism-based; parameters: dose 35 mg/kg, route intravenous
[25] = Cmax in Wistar rat plasma at 35 mg/kg, iv; type: ADME, organism-based; parameters: dose 35 mg/kg, route intravenous
in vivo [26] = conditions: Wistar, rat, plasma, po, 140 mg/kg
Description: AUC (0 to infinity) in Wistar rat plasma at 140 mg/kg, po

in vivo [27] = conditions: Wistar, rat, plasma, po, 140 mg/kg; remark: listed apart in the source
Description: Tmax in Wistar rat plasma at 140 mg/kg, po

in vivo [28] = conditions: Wistar, rat, plasma, po, 140 mg/kg; remark: listed apart in the source
Description: Cmax in Wistar rat plasma at 140 mg/kg, po

- Cmax (Rattus norvegicus [1]): 3000 ng/mL
- metabolised at 24 h [2]: 10%
- metabolised at 24 h [3]: 10%
- AUC (Rattus norvegicus [4]): 275 µg·min/mL
- metabolised at 24 h [5]: 10%
- degraded at 672 h [6]: 10%
- Tmax (Rattus norvegicus [7]): 60 min
- Cmax (Rattus norvegicus [8]): 1300 ng/mL
- degraded at 672 h [9]: 10%
- F (Rattus norvegicus [10]): 64.5%
- half-life [11]: 478 min
- degraded at 672 h [12]: 40%
- logD [13]: -1.1
- logD [14]: 0.49
- half-life [15]: 35.8 min
- AUC (Rattus norvegicus [16]): 291 µg·min/mL
- Tmax (Rattus norvegicus [17]): 10 min
Structure (SMILES): CN(C)C(=N)/N=C(\N)NSC1CCCCC1

- half-life [18]: 78.6 h
- half-life [19]: 78.6 h
- half-life [20]: 0.25 min
- half-life [11]: 12.1 min
- logD [13]: -0.7
- half-life [21]: 18.1 min
- logD [14]: -0.76
- half-life [15]: 14.2 min
- t1/2 (Serum): 0.0623 min
- half-life [22]: 36.8 min
Structure (SMILES): CN(C)C(=N)/N=C(\N)NSc1ccccc1

- AUC (Rattus norvegicus [23]): 170 µg·min/mL
- Tmax [24]: 1 min
- Cmax [25]: 20900 ng/mL
- AUC(0-inf) (in vivo [26]): 4820 ng·h/mL
- Tmax (in vivo [27]): 50 min
- Cmax (in vivo [28]): 1700 ng/mL
Structure (SMILES): CN(C)C(=N)N=C(N)N [METFORMIN]
